Tested on: 156681-154-R-J1-PDC complex spheroid viability
Assay: Anticancer human tumor 156681-154-R-J1-PDC patient-derived melanoma cell line growth inhibition [CLK]
Settings: for IC50: curve of first compound; for viability, T/C: stronger effect = lower value
Summary of the method: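 Patient-derived tumor cells grown as complex spheroids with HUVEC endothelial cells and mesenchymal stem cells, treated with drug combinations. Concentrations descend in half-log steps from near clinical Cmax, or from 10 microM if Cmax unknown.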

[1] = second compound 0.0316 µM, first compound 0.0316 µM
[2] = second compound 0.0316 µM, first compound 0.1 µM
[3] = second compound 0.0316 µM, first compound 0.316 µM
[4] = second compound 0.0316 µM, first compound 1 µM
[5] = second compound 0.0316 µM, first compound 3.16 µM
[6] = second compound 0.0316 µM, first compound 10 µM
[7] = second compound 0.1 µM, first compound 0.0316 µM
[8] = second compound 0.1 µM, first compound 0.1 µM
[9] = second compound 0.1 µM, first compound 0.316 µM
[10] = second compound 0.1 µM, first compound 1 µM
[11] = second compound 0.1 µM, first compound 3.16 µM
[12] = second compound 0.1 µM, first compound 10 µM
[13] = second compound 0.316 µM, first compound 0.0316 µM
[14] = second compound 0.316 µM, first compound 0.1 µM
[15] = second compound 0.316 µM, first compound 0.316 µM
[16] = second compound 0.316 µM, first compound 1 µM
[17] = second compound 0.316 µM, first compound 3.16 µM
[18] = second compound 0.316 µM, first compound 10 µM
[19] = second compound 1 µM, first compound 0.0316 µM
[20] = second compound 1 µM, first compound 0.1 µM
[21] = second compound 1 µM, first compound 0.316 µM
[22] = second compound 1 µM, first compound 1 µM
[23] = second compound 1 µM, first compound 3.16 µM
[24] = second compound 1 µM, first compound 10 µM
[25] = second compound 3.16 µM, first compound 0.0316 µM
[26] = second compound 3.16 µM, first compound 0.1 µM
[27] = second compound 3.16 µM, first compound 0.316 µM
[28] = second compound 3.16 µM, first compound 1 µM
[29] = second compound 3.16 µM, first compound 3.16 µM
[30] = second compound 3.16 µM, first compound 10 µM
[31] = second compound 10 µM, first compound 0.0316 µM
[32] = second compound 10 µM, first compound 0.1 µM
[33] = second compound 10 µM, first compound 0.316 µM
[34] = second compound 10 µM, first compound 1 µM
[35] = second compound 10 µM, first compound 3.16 µM
[36] = second compound 10 µM, first compound 10 µM
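Also: spheroids exposed to the agents for seven days.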
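For viability, T/C in this document: 100% = DMSO vehicle control viability.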

With `CC(=O)O[C@H]1C(=O)[C@@]2(C)[C@H]([C@H](OC(=O)c3ccccc3)[C@]3(O)C[C@H](OC(=O)[C@H](O)[C@@H](NC(=O)c4ccccc4)c4ccccc4)C(C)=C1C3(C)C)[C@]1(OC(C)=O)CO[C@@H]1C[C@@H]2O` + CNC(=O)c1ccc(Nc2nc(OC3CCCC3)c3c(-c4ccc5nc(C)oc5c4)c[nH]c3n2)c(OC)c1 the IC50 (second compound 0.0316 µM) was under 31.6 nM, the IC50 (second compound 0.1 µM) was under 31.6 nM and the IC50 (second compound 0.316 µM) was over 10000 nM. The IC50 (second compound 1 µM) was over 10000 nM, the IC50 (second compound 3.16 µM) was over 10000 nM and the IC50 (second compound 10 µM) was over 10000 nM. The viability, T/C [1] was 16.8%, the viability, T/C [2] was 19% and the viability, T/C [3] was 13.9%. It also gave a viability, T/C [4] of 19.6%, a viability, T/C [5] of 30.7% and a viability, T/C [6] of 41.1%. It also gave a viability, T/C [7] of 36.3%, a viability, T/C [8] of 24.6% and a viability, T/C [9] of 38.9%. For the same compound, the viability, T/C [10] was 44.2%, the viability, T/C [11] was 61.3% and the viability, T/C [12] was 56.1%. The viability, T/C [13] was 78.4%, the viability, T/C [14] was 88.8% and the viability, T/C [15] was 55.4%. The viability, T/C [16] was 91.9%, the viability, T/C [17] was 102% and the viability, T/C [18] was 95.3%. The viability, T/C [19] was 58.5%, the viability, T/C [20] was 66.6% and the viability, T/C [21] was 65.5%. For the same compound, the viability, T/C [22] was 71.7%, the viability, T/C [23] was 85% and the viability, T/C [24] was 76.4%. The viability, T/C [25] was 63.2%, the viability, T/C [26] was 60.1% and the viability, T/C [27] was 56%. For the same compound, the viability, T/C [28] was 71.4%, the viability, T/C [29] was 78.6% and the viability, T/C [30] was 58.4%. The viability, T/C [31] was 51.6%, the viability, T/C [32] was 51.3% and the viability, T/C [33] was 55.2%. The viability, T/C [34] was 47.1%, the viability, T/C [35] was 57.5% and the viability, T/C [36] was 55.2%.
`CCc1c2c(nc3ccc(O)cc13)-c1cc3c(c(=O)n1C2)COC(=O)[C@]3(O)CC` + CNC(=O)c1ccc(Nc2nc(OC3CCCC3)c3c(-c4ccc5nc(C)oc5c4)c[nH]c3n2)c(OC)c1 gave an IC50 (second compound 0.0316 µM) of under 3.16 nM, an IC50 (second compound 0.1 µM) of under 3.16 nM and an IC50 (second compound 0.316 µM) of under 3.16 nM. For the same compound, the IC50 (second compound 1 µM) was under 3.16 nM, the IC50 (second compound 3.16 µM) was under 3.16 nM and the IC50 (second compound 10 µM) was under 3.16 nM. For the same compound, the viability, T/C (second compound 0.0316 µM, first compound 0.00316 µM) was 27.7%, the viability, T/C (second compound 0.0316 µM, first compound 0.01 µM) was 15% and the viability, T/C [1] was 18%. It also gave a viability, T/C [2] of 19.4%, a viability, T/C [3] of 16.6% and a viability, T/C [4] of 4.47%. The viability, T/C (second compound 0.1 µM, first compound 0.00316 µM) was 24.1%, the viability, T/C (second compound 0.1 µM, first compound 0.01 µM) was 16.7% and the viability, T/C [7] was 14%. The viability, T/C [8] was 17.7%, the viability, T/C [9] was 14.9% and the viability, T/C [10] was 5.02%. It also gave a viability, T/C (second compound 0.316 µM, first compound 0.00316 µM) of 27.4%, a viability, T/C (second compound 0.316 µM, first compound 0.01 µM) of 14.2% and a viability, T/C [13] of 12.8%. The viability, T/C [14] was 16.4%, the viability, T/C [15] was 14.8% and the viability, T/C [16] was 5.29%. It also gave a viability, T/C (second compound 1 µM, first compound 0.00316 µM) of 21.9%, a viability, T/C (second compound 1 µM, first compound 0.01 µM) of 11.3% and a viability, T/C [19] of 10.5%. It also gave a viability, T/C [20] of 14.7%, a viability, T/C [21] of 9.49% and a viability, T/C [22] of 5.41%. It also gave a viability, T/C (second compound 3.16 µM, first compound 0.00316 µM) of 20.9%, a viability, T/C (second compound 3.16 µM, first compound 0.01 µM) of 15.8% and a viability, T/C [25] of 10.4%. The viability, T/C [26] was 14.2%, the viability, T/C [27] was 13.1% and the viability, T/C [28] was 2.05%. It also gave a viability, T/C (second compound 10 µM, first compound 0.00316 µM) of 18.9%, a viability, T/C (second compound 10 µM, first compound 0.01 µM) of 12% and a viability, T/C [31] of 11.1%. The viability, T/C [32] was 12.5%, the viability, T/C [33] was 9.62% and the viability, T/C [34] was 1.61%.
`COc1cccc2c1C(=O)c1c(O)c3c(c(O)c1C2=O)CC(O)(C(=O)CO)CC3OC1CC(N)C(O)C(C)O1` (stereo unspecified) + CNC(=O)c1ccc(Nc2nc(OC3CCCC3)c3c(-c4ccc5nc(C)oc5c4)c[nH]c3n2)c(OC)c1 gave an IC50 (second compound 0.0316 µM) of under 31.6 nM, an IC50 (second compound 0.1 µM) of under 31.6 nM and an IC50 (second compound 0.316 µM) of under 31.6 nM. It also gave an IC50 (second compound 1 µM) of under 31.6 nM, an IC50 (second compound 3.16 µM) of under 31.6 nM and an IC50 (second compound 10 µM) of under 31.6 nM. It also gave a viability, T/C [1] of 28.9%, a viability, T/C [2] of 20.6% and a viability, T/C [3] of 2.62%. It also gave a viability, T/C [4] of 0.17%, a viability, T/C [5] of 0.29% and a viability, T/C [6] of 2.75%. For the same compound, the viability, T/C [7] was 27.2%, the viability, T/C [8] was 20% and the viability, T/C [9] was 3.42%. The viability, T/C [10] was 0.17%, the viability, T/C [11] was 0.11% and the viability, T/C [12] was 0.1%. The viability, T/C [13] was 30.7%, the viability, T/C [14] was 18.2% and the viability, T/C [15] was 2.21%. For the same compound, the viability, T/C [16] was 0.13%, the viability, T/C [17] was 0.1% and the viability, T/C [18] was 0.32%. For the same compound, the viability, T/C [19] was 18.9%, the viability, T/C [20] was 9.29% and the viability, T/C [21] was 1.41%. The viability, T/C [22] was 0.1%, the viability, T/C [23] was 1.2% and the viability, T/C [24] was 1.16%. The viability, T/C [25] was 17.6%, the viability, T/C [26] was 6.96% and the viability, T/C [27] was 0.58%. The viability, T/C [28] was 0.12%, the viability, T/C [29] was 0.1% and the viability, T/C [30] was 0.08%. For the same compound, the viability, T/C [31] was 16.3%, the viability, T/C [32] was 6.19% and the viability, T/C [33] was 2.01%. It also gave a viability, T/C [34] of 0.71%, a viability, T/C [35] of 0.12% and a viability, T/C [36] of 0.11%.
